Numbering of substitutions follows the chain as printed. Where two headings read alike, the source gives them in different places. Ends that are not written are not given here.
Legend:
Assay in all cases: PDK1 activity assay with T308tide
Type in all cases: biochemical
GST-PDK1 [Leu155Ser] = biological target: T1, GST-PDK1 [Leu155Ser] (Homo sapiens, UniProt O15530, L155S); conditions: for AC50: GST-PDK1 [Leu155Ser]
T1 construct: different protein constructs, comprising the full length protein or the catalytic domain alone; made in house; host or cells: HEK293 cells (pEBG-2T-PDK1 mutant)
T1 sequence (O15530 1-556 L155S): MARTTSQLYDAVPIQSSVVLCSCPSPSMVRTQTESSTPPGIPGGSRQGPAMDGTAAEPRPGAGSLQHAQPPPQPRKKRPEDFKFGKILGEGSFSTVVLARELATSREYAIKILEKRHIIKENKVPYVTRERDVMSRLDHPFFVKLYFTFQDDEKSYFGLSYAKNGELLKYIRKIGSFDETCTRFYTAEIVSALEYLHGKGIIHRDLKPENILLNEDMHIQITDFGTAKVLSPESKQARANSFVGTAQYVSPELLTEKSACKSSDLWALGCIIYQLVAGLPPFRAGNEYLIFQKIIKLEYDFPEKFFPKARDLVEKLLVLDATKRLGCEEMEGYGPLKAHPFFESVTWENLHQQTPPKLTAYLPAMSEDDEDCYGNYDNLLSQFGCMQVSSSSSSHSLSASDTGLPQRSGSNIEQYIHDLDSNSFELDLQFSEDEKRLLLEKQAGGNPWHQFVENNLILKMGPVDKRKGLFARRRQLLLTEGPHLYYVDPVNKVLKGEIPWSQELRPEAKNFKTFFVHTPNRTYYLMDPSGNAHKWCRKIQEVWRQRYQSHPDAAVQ

GST-PDK1 [Gln150Glu] = biological target: T2, GST-PDK1 [Gln150Glu] (Homo sapiens, UniProt O15530, Q150E)
T2 construct: different protein constructs, comprising the full length protein or the catalytic domain alone; made in house; host or cells: HEK293 cells (pEBG-2T-PDK1 mutant)
T2 sequence (O15530 1-556 Q150E): T1 sequence (O15530 1-556 L155S) with Q150E, S155L

GST-PDK1 [Gln150Lys] = biological target: T3, GST-PDK1 [Gln150Lys] (Homo sapiens, UniProt O15530, Q150K)
T3 construct: different protein constructs, comprising the full length protein or the catalytic domain alone; made in house; host or cells: HEK293 cells (pEBG-2T-PDK1 mutant)
T3 sequence (O15530 1-556 Q150K): T1 sequence (O15530 1-556 L155S) with Q150K, S155L

Molecule | AC50 (GST-PDK1 [Leu155Ser]) | activation of PDK1 mutant (in words) (GST-PDK1 [Leu155Ser]; Leu155 replaced with Ser, constitutively active) | Max. activity (GST-PDK1 [Gln150Glu]) [U/mg] | AC50 (GST-PDK1 [Gln150Glu]; read-out: AC50) [µM] | AC50 (GST-PDK1 [Gln150Lys]) [µM] | Max. activity (GST-PDK1 [Gln150Lys]) [U/mg] | AC50 (GST-PDK1 [Gln150Glu])
O=C(O)CSC(CC(=O)c1ccc(Cl)cc1)c1ccccc1 (stereo not shown) [Compound 1] | No Effect | could not be further activated | 2.5 ± 0.7 | > 200 | 15 ± 4 | 1.37 ± 0.06 | –
REPRILSEEEQEMFRDFDYIADWC [PIFtide, reference compound] | No Effect | – | – | – | 0.29 ± 0.05 | 2.7 ± 0.2 | No Effect

— patent publication US20110152166A1, “METHOD OF MODULATION OF PROTEIN PHOSPHORYLATION-DEPENDENT CONFORMATIONAL TRANSITIONS WITH LOW MOLECULAR WEIGHT COMPOUNDS” (priority 2006, published 2011)
